Laboratory results as given in patent US11008313B2, “Substituted 1-methyl-1,2,3,4-tetrahydroisoquinoline molecules as PCSK9 allosteric binders” (Merck Sharp & Dohme Corp., priority 2016, dated 2021).

Columns and labels:
[1] = molecular target: T1, PCSK9 (Homo sapiens, UniProt Q8NBP7); experiment: Differential scanning calorimetry (DSC) assay, direct binding / thermal stabilization of PCSK9; settings: Tm(with compound)−Tm(no compound); 2 μM PCSK9, 300 μM test compound
Method in brief: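 Thermal stabilization of 2 μM PCSK9 with or without 300 μM compound in 25 mM HEPES pH 7.5, 150 mM NaCl, 1 mM CaCl2, 3.75% DMSO. Sample heated 20–80 °C at 200 °C/hr against buffer reference. Protein Tm derived from each thermogram.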

[2] = molecular target: T1, PCSK9; experiment: Fluorescence polarization competition binding assay (probe: compound of Example 57); settings: 2 μM PCSK9, 50 nM compound of Example 57 as probe, overnight incubation; read-out: FP IC
Method in brief: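 Competition fluorescence-polarization binding: 2 μM PCSK9 with 50 nM fluorescent probe in 20 mM HEPES pH 7.5, 150 mM NaCl, 1 mM CaCl2, 0.005% P-20, incubated with test compound overnight in the dark. Anisotropy read; % inhibition relative to DMSO wells and probe-without-PCSK9 wells.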

T1 sequence (Q8NBP7 153-692): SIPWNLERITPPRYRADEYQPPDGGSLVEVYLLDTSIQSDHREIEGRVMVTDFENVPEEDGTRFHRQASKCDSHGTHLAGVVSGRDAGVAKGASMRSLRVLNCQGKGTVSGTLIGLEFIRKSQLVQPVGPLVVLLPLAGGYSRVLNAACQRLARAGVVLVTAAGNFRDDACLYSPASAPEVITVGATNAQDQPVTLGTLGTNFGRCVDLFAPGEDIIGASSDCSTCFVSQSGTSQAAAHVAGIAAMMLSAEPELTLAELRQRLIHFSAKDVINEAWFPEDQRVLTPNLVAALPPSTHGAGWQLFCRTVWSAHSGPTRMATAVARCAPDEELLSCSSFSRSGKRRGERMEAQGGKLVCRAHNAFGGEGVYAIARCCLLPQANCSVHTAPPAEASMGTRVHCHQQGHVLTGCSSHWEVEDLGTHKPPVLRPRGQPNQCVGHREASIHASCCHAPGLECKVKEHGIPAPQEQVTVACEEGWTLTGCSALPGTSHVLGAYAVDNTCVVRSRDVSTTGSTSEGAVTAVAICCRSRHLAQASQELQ

Row | SMILES | ΔTm at 300 µM [1] | IC50 [2] | DSC ΔTm [1]
1 | COc1cccc(NC(=O)C[C@@]2(C)NCCc3cc(OCC4CCCCO4)c(Oc4ccc(-c5ccc(C(=O)O)cc5)c(F)c4)cc32)n1 (stereo partly drawn) [Example 90, 2′-fluoro-4′-(((1R)-1-(2-((6-methoxypyridin-2-yl)amino)-2-oxoethyl)-1-methyl-6-((tetrahydro-2H-pyran-2-yl)methoxy)-1,2,3,4-tetrahydroisoquinolin-7-yl)oxy)-[1,1′-biphenyl]-4-carboxylic acid] | 8.59 °C | 109 nM | 
2 | COc1cc2c(cc1Oc1cccc(F)c1)[C@@](C)(CC(=O)Nc1nccs1)NCC2 [Example 9, (R)-2-(7-(3-fluorophenoxy)-6-methoxy-1-methyl-1,2,3,4-tetrahydroisoquinolin-1-yl)-N-(thiazol-2-yl)acetamide] | 5.92 °C | 847 nM | 
3 | C[C@]1(CC(=O)Nc2nccs2)NCCc2cc(OCc3ccccn3)c(Oc3ccc(-c4ccc(C(=O)O)cc4)c(F)c3)cc21 [Example 18, (R)-2′-fluoro-4′-((1-methyl-1-(2-oxo-2-(thiazol-2-ylamino)ethyl)-6-(pyridin-2-ylmethoxy)-1,2,3,4-tetrahydroisoquinolin-7-yl)oxy)-[1,1′-biphenyl]-4-carboxylic acid] | 7.62 °C | 94.3 nM | 
4 | C[C@]1(CC(=O)Nc2nccs2)NCCc2cc(OCC3CCCCO3)c(Oc3ccc(C(=O)Nc4n[nH]c5ncccc45)c(F)c3)cc21 (single isomer, unassigned) [Example 75, 2-fluoro-4-(((R)-1-methyl-1-(2-oxo-2-(thiazol-2-ylamino)ethyl)-6-(((R or S)-tetrahydro-2H-pyran-2-yl)methoxy)-1,2,3,4-tetrahydroisoquinolin-7-yl)oxy)-N-(1H-pyrazolo[3,4-b]pyridin-3-yl)benzamide] | 6.18 °C | 410 nM | 
5 | COc1cccc(NC(=O)C[C@@]2(C)NCCc3cc(OCC4CCCCO4)c(Oc4ccc(Br)c(F)c4)cc32)n1 (stereo partly drawn) [Example 87, 2-((1R)-7-(4-bromo-3-fluorophenoxy)-1-methyl-6-((tetrahydro-2H-pyran-2-yl)methoxy)-1,2,3,4-tetrahydroisoquinolin-1-yl)-N-(6-methoxypyridin-2-yl)acetamide] | 6.57 °C | 1.4 nM | 
6 | C[C@]1(CC(=O)Nc2nccs2)NCCc2cc(OCC3CCCCO3)c(Oc3ccc(C(=O)Nc4n[nH]c5ncccc45)c(F)c3)cc21 (stereo partly drawn) [Example 74, 2-fluoro-4-(((1R)-1-methyl-1-(2-oxo-2-(thiazol-2-ylamino)ethyl)-6-((tetrahydro-2H-pyran-2-yl)methoxy)-1,2,3,4-tetrahydroisoquinolin-7-yl)oxy)-N-(1H-pyrazolo[3,4-b]pyridin-3-yl)benzamide] | 7.08 °C | 790 nM | 
7 | C[C@]1(CC(=O)Nc2nccs2)NCCc2cc(OCC3CCCCO3)c(Oc3cccc(F)c3)cc21 (single isomer, unassigned) [Example 81, 2-((1R)-7-(3-fluorophenoxy)-1-methyl-6-(((S or R)-tetrahydro-2H-pyran-2-yl)methoxy)-1,2,3,4-tetrahydroisoquinolin-1-yl)-N-(thiazol-2-yl)acetamide] |  | 550 nM | 6.585 °C
8 | Cc1noc(COc2cc3c(cc2Oc2ccc(-c4ccc(C(=O)O)cc4)c(F)c2)[C@@](C)(CC(=O)Nc2nccs2)NCC3)n1 [Example 24, (R)-2′-fluoro-4′-((1-methyl-6-((3-methyl-1,2,4-oxadiazol-5-yl)methoxy)-1-(2-oxo-2-(thiazol-2-ylamino)ethyl)-1,2,3,4-tetrahydroisoquinolin-7-yl)oxy)-[1,1′-biphenyl]-4-carboxylic acid] | 7.2 °C | 261 nM | 
9 | C[C@]1(CC(=O)Nc2nccs2)NCCc2cc(OCC3CCCCO3)c(Oc3ccc(C(=O)O)c(F)c3)cc21 (stereo partly drawn) [Example 66, 2-fluoro-4-(((1R)-1-methyl-1-(2-oxo-2-(thiazol-2-ylamino)ethyl)-6-((tetrahydro-2H-pyran-2-yl)methoxy)-1,2,3,4-tetrahydroisoquinolin-7-yl)oxy)benzoic acid] |  | 395 nM | 9.14 °C
10 | C[C@]1(CC(=O)Nc2cccnn2)NCCc2cc(OCC3CCCCO3)c(Oc3ccc(Br)c(F)c3)cc21 (stereo partly drawn) [Example 88, 2-((1R)-7-(4-bromo-3-fluorophenoxy)-1-methyl-6-((tetrahydro-2H-pyran-2-yl)methoxy)-1,2,3,4-tetrahydroisoquinolin-1-yl)-N-(pyridazin-3-yl)acetamide] | 5.51 °C | 1.6 nM | 
11 | C[C@]1(CC(=O)Nc2nccs2)NCCc2cc(OCCn3cc(-c4cnccn4)nn3)c(Oc3ccc(C(=O)O)c(F)c3)cc21 [Example 49, (R)-2-fluoro-4-((1-methyl-1-(2-oxo-2-(thiazol-2-ylamino)ethyl)-6-(2-(4-(pyrazin-2-yl)-1H-1,2,3-triazol-1-yl)ethoxy)-1,2,3,4-tetrahydroisoquinolin-7-yl)oxy)benzoic acid] | 6.29 °C | 682 nM | 
12 | C[C@]1(CC(=O)Nc2nccs2)NCCc2cc(OCCn3cc(COc4ccccc4)nn3)c(Oc3ccc(C(=O)O)c(F)c3)cc21 [Example 47, (R)-2-fluoro-4-((1-methyl-1-(2-oxo-2-(thiazol-2-ylamino)ethyl)-6-(2-(4-(phenoxymethyl)-1H-1,2,3-triazol-1-yl)ethoxy)-1,2,3,4-tetrahydroisoquinolin-7-yl)oxy)benzoic acid] | 6.27 °C | 646 nM | 
13 | COc1cc2c3cc1Oc1ccc(C(=O)O)c(c1)OC/C=C\CCc1csc(n1)NC(=O)C[C@@]3(C)NCC2 [Example 2, (R,72Z)-36-methoxy-31-methyl-5-oxo-31,32,33,34-tetrahydro-2,13-dioxa-6-aza-7(2,4)-thiazola-3(7,1)-isoquinolina-1(1,3)-benzenacyclotridecaphan-10-ene-14-carboxylic acid] | 6.21 °C | 1240 nM | 
14 | Cn1nccc1NC(=O)c1ccc(Oc2cc3c(cc2OCC2CCCCO2)CCN[C@]3(C)CC(=O)Nc2nccs2)cc1F (stereo partly drawn) [Example 73, 2-fluoro-4-(((1R)-1-methyl-1-(2-oxo-2-(thiazol-2-ylamino)ethyl)-6-((tetrahydro-2H-pyran-2-yl)methoxy)-1,2,3,4-tetrahydroisoquinolin-7-yl)oxy)-N-(1-methyl-1H-pyrazol-5-yl)benzamide] | 6.66 °C | 632 nM | 
15 | COc1cc2c(cc1Oc1cccc(F)c1)[C@@](C)(CC(=O)Nc1cccc3[nH]ccc13)NCC2 [Example 12, (R)-2-(7-(3-fluorophenoxy)-6-methoxy-1-methyl-1,2,3,4-tetrahydroisoquinolin-1-yl)-N-(1H-indol-4-yl)acetamide] | -0.225 °C | 753 nM | 
16 | COc1cc2c(cc1Oc1ccnc(F)c1)[C@@](C)(CC(=O)Nc1nccs1)NCC2 [Example 7, (R)-2-(7-((2-fluoropyridin-4-yl)oxy)-6-methoxy-1-methyl-1,2,3,4-tetrahydroisoquinolin-1-yl)-N-(thiazol-2-yl)acetamide] | 5.59 °C | 652 nM | 
17 | C[C@]1(CC(=O)Nc2nccs2)NCCc2cc(OCc3ncccn3)c(Oc3ccc(C(=O)O)c(F)c3)cc21 [Example 68, (R)-2-fluoro-4-((1-methyl-1-(2-oxo-2-{thiazol-2-ylamino)ethyl)-6-(pyrimidin-2-ylmethoxy)-1,2,3,4-tetrahydroisoquinolin-7-yl)oxy)benzoic acid] | 7.56 °C | 477 nM | 
18 | CC1(c2cn(CCOc3cc4c(cc3Oc3ccc(C(=O)O)c(F)c3)[C@@](C)(CC(=O)Nc3nccs3)NCC4)nn2)CCOC1 (stereo partly drawn) [Example 38, 2-fluoro-4-(((1R)-1-methyl-6-(2-(4-(3-methyltetrahydrofuran-3-yl)-1H-1,2,3-triazol-1-yl)ethoxy)-1-(2-oxo-2-(thiazol-2-ylamino)ethyl)-1,2,3,4-tetrahydroisoquinolin-7-yl)oxy)benzoic acid] | 7 °C | 267 nM | 
19 | COC(=O)c1ccc(Oc2cc3c(cc2OCc2ncccn2)CCN[C@]3(C)CC(=O)Nc2nccs2)cc1F [Example 71, methyl (R)-2-fluoro-4-((1-methyl-1-(2-oxo-2-(thiazol-2-ylamino)ethyl)-6-(pyrimidin-2-ylmethoxy)-1,2,3,4-tetrahydroisoquinolin-7-yl)oxy)benzoate] | 6.36 °C | 645 nM | 
20 | C[C@]1(CC(=O)Nc2cccc3[nH]ccc23)NCCc2cc(OCC3CCCCO3)c(Oc3ccc(-c4ccc(C(=O)O)cc4)c(F)c3)cc21 (stereo partly drawn) [Example 92, 4′-(((1R)-1-(2-((1H-indol-4-yl)amino)-2-oxoethyl)-1-methyl-6-((tetrahydro-2H-pyran-2-yl)methoxy)-1,2,3,4-tetrahydroisoquinolin-7-yl)oxy)-2′-fluoro-[1,1′-biphenyl]-4-carboxylic acid] | 7.28 °C | 958 nM | 
21 | C[C@]1(CC(=O)Nc2nccs2)NCCc2cc(OCC3CCCO3)c(Oc3ccc(-c4c[nH]c5c(C(=O)O)cccc45)c(F)c3)cc21 (stereo partly drawn) [Example 20, 3-(2-fluoro-4-(((1R)-1-methyl-1-(2-oxo-2-(thiazol-2-ylamino)ethyl)-6-((tetrahydrofuran-2-yl)methoxy)-1,2,3,4-tetrahydroisoquinolin-7-yl)oxy)phenyl)-1H-indole-7-carboxylic acid] | 8.56 °C | 188 nM | 
22 | C[C@]1(CC(=O)Nc2nccs2)NCCc2cc(OCc3ccccn3)c(Oc3ccc(C(=O)O)c(F)c3)cc21 [Example 65, (R)-2-fluoro-4-((1-methyl-1-(2-oxo-2-(thiazol-2-ylamino)ethyl)-6-(pyridin-2-ylmethoxy)-1,2,3,4-tetrahydroisoquinolin-7-yl)oxy)benzoic acid] | 7.31 °C | 299 nM | 
